“Also recorded” adds a separate entry of the source. Where two headings read alike, the source gives them in different places.
Legend:
E. coli β-glucuronidase = E. coli β-glucuronidase (Escherichia coli, UniProt P05804); experiment: biochemical
E. coli GUS = E. coli GUS (Escherichia coli, UniProt P05804); experiment: GUS enzyme assay, manual version (purified E. coli GUS, 4MUG); assay type: biochemical
Experimental: The semi-automated GUS high throughput enzyme assay was performed as previously described and was used to screen the Prestwick Chemical Collection. The follow-up studies were performed manually in a similar manner with the exception of plate type and volumes, as briefly outlined here. Compound stock solutions were made in 100% DMSO. […] Final concentrations in the assembled assay were 50 mM HEPES. pH 7.4, 0.01% Triton X-100, 1% DMSO. […] The enzyme reaction was allowed to proceed for 20 minutes at 23° C., and was terminated by the addition of 40 μl of a 1M sodium carbonate solution. […] Fluorescence data, expressed in relative fluorescence units (RFU), were normalized to DMSO (100% activity) and “no enzyme” (0% activity) controls as maximum and minimum responses, respectively. The Bovine taurus GUS enzyme assay was performed in an identical manner except Bovine taurus GUS enzyme (1 nM) was used instead of bacterial GUS. The IC50 values and Hill slopes were calculated from concentration response data using GraphPad Prism software (GraphPad Software Inc., La Jolla, Calif.) employing either four-parameter or a three parameter (fixed bottom) curve fit.

[1] = molecular target: T1, mammalian GUS purified from Bovine taurus liver (Bos taurus, UniProt A3KMY8); experiment: Bovine taurus GUS enzyme assay; assay type: biochemical
T1 sequence (A3KMY8 1-652): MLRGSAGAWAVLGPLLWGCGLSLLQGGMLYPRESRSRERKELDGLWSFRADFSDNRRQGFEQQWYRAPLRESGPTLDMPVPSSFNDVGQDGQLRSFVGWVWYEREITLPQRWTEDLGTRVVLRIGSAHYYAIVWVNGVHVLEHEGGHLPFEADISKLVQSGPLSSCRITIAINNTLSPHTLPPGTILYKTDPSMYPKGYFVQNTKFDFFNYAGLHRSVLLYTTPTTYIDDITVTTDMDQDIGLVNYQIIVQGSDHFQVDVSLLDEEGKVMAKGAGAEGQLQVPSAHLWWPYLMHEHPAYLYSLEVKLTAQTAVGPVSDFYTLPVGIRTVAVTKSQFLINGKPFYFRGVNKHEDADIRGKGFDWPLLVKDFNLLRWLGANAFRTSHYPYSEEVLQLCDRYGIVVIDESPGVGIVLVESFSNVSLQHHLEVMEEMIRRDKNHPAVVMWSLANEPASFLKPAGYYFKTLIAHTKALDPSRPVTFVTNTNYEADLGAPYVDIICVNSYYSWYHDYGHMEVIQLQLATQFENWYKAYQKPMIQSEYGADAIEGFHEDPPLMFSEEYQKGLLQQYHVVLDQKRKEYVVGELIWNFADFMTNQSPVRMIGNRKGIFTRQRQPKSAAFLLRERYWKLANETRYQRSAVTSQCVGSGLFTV

[2] = molecular target: endogenous GUS activity in whole E. coli cells (Escherichia coli, UniProt P05804); experiment: GUS cell based assay (whole E. coli cells, 4MUG); conditions: for potency shift, less potent in the cell-based assay compared to the enzyme assay: less potent in cells
endogenous GUS activity in whole E. coli cells, sequence (P05804 whole entry): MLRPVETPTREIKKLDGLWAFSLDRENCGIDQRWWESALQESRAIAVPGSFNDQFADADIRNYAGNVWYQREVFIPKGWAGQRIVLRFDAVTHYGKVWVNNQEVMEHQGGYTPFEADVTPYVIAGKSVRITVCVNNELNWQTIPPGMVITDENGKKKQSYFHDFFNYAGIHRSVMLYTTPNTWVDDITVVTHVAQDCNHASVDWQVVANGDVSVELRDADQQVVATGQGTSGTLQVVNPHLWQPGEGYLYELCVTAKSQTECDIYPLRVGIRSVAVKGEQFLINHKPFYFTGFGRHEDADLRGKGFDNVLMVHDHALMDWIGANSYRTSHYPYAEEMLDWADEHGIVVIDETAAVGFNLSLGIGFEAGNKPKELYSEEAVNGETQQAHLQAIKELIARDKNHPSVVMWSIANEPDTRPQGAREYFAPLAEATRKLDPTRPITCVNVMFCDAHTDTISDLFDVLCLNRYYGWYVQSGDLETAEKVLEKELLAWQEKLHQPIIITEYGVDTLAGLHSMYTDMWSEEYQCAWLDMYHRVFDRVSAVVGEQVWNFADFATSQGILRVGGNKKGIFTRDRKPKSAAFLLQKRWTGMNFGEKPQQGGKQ
Experimental: An E. coli cell based assay was developed in order to assess the activity of these drugs against whole cells, instead of purified enzyme. We took advantage of the well-known specificity and sensitivity of the 4MUG substrate to detect GUS activity in E. coli cells. This assay mimicked the enzyme assay in format, with the GUS enzyme replaced by live log-phase E. coli cells and the assay incubated for a longer time (2 hr) to detect GUS activity in these un-modified cells.
Cultures of E col (DH5α) carrying the empty expression vector pCMV5 were grown over night in LB containing carbenicilin (50 μM) and then used to initiate fresh LB/carbenicillin cultures adjusted to an initial OD of 0.1. These cultures were allowed to reach an OD of 0.6 and then washed twice with 50 mM HEPES, pH 7.4 containing carbenicillin 50 μM, and concentrated by centrifugation to an OD of 1 for use in the assay. The GUS cell based assay was performed in an identical manner as the enzyme assay except the Triton X-100 was left out of the assay buffer, the E. coli cells replaced the enzyme and the reaction was allowed to proceed for 2 hrs at 37° C. The resulting data was analyzed as outlined for the enzyme assay.

E. coli cells = experiment: microbe, parasite or virus in culture; conditions: Escherichia coli, 2 h
monoamine oxidase = conditions: read-out: reported in vitro IC50 for inhibiting monoamine oxidase; rat brain homogenates; cited from earlier work
MAO = conditions: read-out: reported IC50 for MAO; depending on subclass of MAO-A or MAO-B, or total activity; cited from earlier work
[3] = running text, read-out: IC50 in the E. coli cell-based assay
[4] = running text, read-out: average IC50 in the E. coli GUS enzyme assay

E. coli β-glucuronidase, sequence (P05804 whole entry): as above
E. coli GUS, sequence (P05804 whole entry): as above

CC1(C)Cc2cccc(Oc3ccc(S(=O)(=O)NCc4cccc5ccccc45)s3)c2O1 [BRITE-354502]
IC50 (E. coli β-glucuronidase; read-out: IC50, β-Glucuronidase Inhibitory activity of phenoxythiophene sulfonamides): 965 µM

Cc1cc(C(=O)NNCc2ccccc2)no1 [Isocarboxazid, isocarboxazid]
IC50 (E. coli GUS; average of at least three determinations, read-out: E. coli GUS Enzyme Assay IC50 ± SD): 0.128 ± 0.056 µM | activity against purified mammalian GUS, in words [1]: no significant activity; also recorded: do not inhibit | IC50 [2, 3]: 0.336 ± 0.12 µM

NC[C@H]1O[C@H](O[C@H]2[C@H](O)[C@@H](O[C@H]3O[C@H](CO)[C@@H](O)[C@H](N)[C@H]3O)[C@H](N)C[C@@H]2N)[C@H](O)[C@@H](O)[C@@H]1O [Kanamycin]
inhibition at 50 µg/mL (E. coli cells; read-out: reduction of activity in the viability assay): > 90%

OC(c1cc(C(F)(F)F)nc2c(C(F)(F)F)cccc12)C1CCCCN1 (stereo not drawn) [Mefloquine, mefloquine]
IC50 (E. coli GUS; listed as mefloquine hydrochloride, read-out: average IC50 in the E. coli GUS enzyme assay): 1.21 µM | potency shift, less potent in the cell-based assay compared to the enzyme assay [2]: over 4.9 fold | potency shift, less potent in the cell-based assay compared to the enzyme assay ([2]; listed as mefloquine): 5 fold | IC50 ([2]; read-out: IC50 in the E. coli cell-based assay): 6 µM | viability at 10 µM (E. coli cells; read-out: viability of E. coli): 100%

O=C(CCNNC(=O)c1ccncc1)NCc1ccccc1 [Nialamide, nialamide]
IC50 (E. coli GUS; [4]): 0.071 µM | activity against purified mammalian GUS, in words [1]: no significant activity; also recorded: do not inhibit | IC50 ([1]; average of at least three determinations, read-out: B. taurus GUS Enzyme Assay IC50 ± SD): 74.8 µM | IC50 ([1]; running text, read-out: IC50 against purified mammalian GUS): ~75 µM | potency shift, more potent in the cell-based assay compared to the E. coli GUS enzyme assay ([2]; more potent in cells): 4 fold | IC50 [2, 3]: 0.017 µM | IC50 (monoamine oxidase): 2.6 to 13 µM

NNCCc1ccccc1 [Phenelzine, phenelzine]
inhibition in the Prestwick collection screen (E. coli β-glucuronidase; 10 µM): > 50% | inhibition at 10 µM (E. coli β-glucuronidase; read-out: inhibition in the Prestwick collection screen): 62% | IC50 (E. coli GUS; running text, listed as phenelzine, read-out: average IC50 in the E. coli GUS enzyme assay): 2.28 µM | IC50 (E. coli GUS; [4]): 2.2 µM | IC50 ([2]; average of at least three determinations, 2 hrs at 37° C., read-out: E. coli Cell-Based Assay IC50 ± SD): 7.12 µM | potency shift, less potent in the cell-based assay compared to the enzyme assay [2]: 2.6 fold | IC50 (MAO): 0.07 to 0.9 µM
